In publication PMC9516332 (Frontiers in Oncology, 2022):

Columns and labels:
Assay in all cases: Kinase panel profiling at 1 µmol/L (MSA or IMAP), percentage inhibition
Type in all cases: biochemical
[1] = molecular target: panel of 255 wild-type kinases (Homo sapiens, UniProt Q9H1R3); settings: kinase skMLCK; 1 µmol/L single concentration; read-out: %-inhibition at 1 µmol/L, skMLCK
[2] = molecular target: panel of 255 wild-type kinases (Homo sapiens, UniProt P29376); settings: kinase LTK; 1 µmol/L single concentration; read-out: %-inhibition at 1 µmol/L, LTK
[3] = molecular target: panel of 255 wild-type kinases (Homo sapiens, UniProt P24723); settings: kinase PKCη; 1 µmol/L single concentration; read-out: %-inhibition at 1 µmol/L, PKCη
[4] = molecular target: panel of 255 wild-type kinases (Homo sapiens, UniProt P09769); settings: kinase FGR; 1 µmol/L single concentration; read-out: %-inhibition at 1 µmol/L, FGR
[5] = molecular target: T1, panel of 255 wild-type kinases (Homo sapiens, UniProt P54753); settings: kinase EPHB3; 1 µmol/L single concentration; read-out: %-inhibition at 1 µmol/L, EPHB3
T1 sequence (P54753 34-998): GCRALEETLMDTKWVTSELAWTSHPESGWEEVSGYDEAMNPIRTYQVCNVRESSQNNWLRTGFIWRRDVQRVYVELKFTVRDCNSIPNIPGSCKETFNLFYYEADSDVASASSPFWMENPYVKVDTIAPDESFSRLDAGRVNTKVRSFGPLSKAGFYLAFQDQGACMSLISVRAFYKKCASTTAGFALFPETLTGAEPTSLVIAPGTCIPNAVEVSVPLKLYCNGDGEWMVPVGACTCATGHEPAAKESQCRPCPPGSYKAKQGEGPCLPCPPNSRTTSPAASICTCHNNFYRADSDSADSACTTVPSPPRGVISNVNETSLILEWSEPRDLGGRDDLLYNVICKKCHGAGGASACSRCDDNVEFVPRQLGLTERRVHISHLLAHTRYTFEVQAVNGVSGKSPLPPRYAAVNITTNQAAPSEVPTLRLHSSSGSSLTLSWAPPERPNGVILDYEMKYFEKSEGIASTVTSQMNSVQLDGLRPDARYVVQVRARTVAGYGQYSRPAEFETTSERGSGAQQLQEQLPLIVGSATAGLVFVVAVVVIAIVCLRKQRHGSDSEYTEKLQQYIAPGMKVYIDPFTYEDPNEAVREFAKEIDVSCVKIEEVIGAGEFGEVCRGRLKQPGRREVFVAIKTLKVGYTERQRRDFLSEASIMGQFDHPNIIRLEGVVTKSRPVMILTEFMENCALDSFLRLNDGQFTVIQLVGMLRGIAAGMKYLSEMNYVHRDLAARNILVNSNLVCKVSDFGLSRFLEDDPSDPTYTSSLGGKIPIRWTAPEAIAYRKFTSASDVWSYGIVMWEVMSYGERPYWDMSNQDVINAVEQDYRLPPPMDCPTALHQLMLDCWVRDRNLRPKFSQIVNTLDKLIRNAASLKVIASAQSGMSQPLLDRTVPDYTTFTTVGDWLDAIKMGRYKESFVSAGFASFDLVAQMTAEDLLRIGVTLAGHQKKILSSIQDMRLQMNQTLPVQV

[6] = molecular target: panel of 255 wild-type kinases (Homo sapiens, UniProt O95819); settings: kinase HGK; 1 µmol/L single concentration; read-out: %-inhibition at 1 µmol/L, HGK
[7] = molecular target: panel of 255 wild-type kinases (Homo sapiens, UniProt O96017); settings: CHK2 kinase assay; 1 µmol/L single concentration; read-out: %-inhibition CHK2
[8] = molecular target: panel of 255 wild-type kinases (Homo sapiens, UniProt Q06187); settings: BTK kinase assay; 1 µmol/L single concentration; read-out: %-inhibition BTK
[9] = molecular target: T2, panel of 255 wild-type kinases (Homo sapiens, UniProt O00418); settings: kinase EEF2K; 1 µmol/L single concentration; read-out: %-inhibition at 1 µmol/L, EEF2K
T2 sequence (O00418 1-725): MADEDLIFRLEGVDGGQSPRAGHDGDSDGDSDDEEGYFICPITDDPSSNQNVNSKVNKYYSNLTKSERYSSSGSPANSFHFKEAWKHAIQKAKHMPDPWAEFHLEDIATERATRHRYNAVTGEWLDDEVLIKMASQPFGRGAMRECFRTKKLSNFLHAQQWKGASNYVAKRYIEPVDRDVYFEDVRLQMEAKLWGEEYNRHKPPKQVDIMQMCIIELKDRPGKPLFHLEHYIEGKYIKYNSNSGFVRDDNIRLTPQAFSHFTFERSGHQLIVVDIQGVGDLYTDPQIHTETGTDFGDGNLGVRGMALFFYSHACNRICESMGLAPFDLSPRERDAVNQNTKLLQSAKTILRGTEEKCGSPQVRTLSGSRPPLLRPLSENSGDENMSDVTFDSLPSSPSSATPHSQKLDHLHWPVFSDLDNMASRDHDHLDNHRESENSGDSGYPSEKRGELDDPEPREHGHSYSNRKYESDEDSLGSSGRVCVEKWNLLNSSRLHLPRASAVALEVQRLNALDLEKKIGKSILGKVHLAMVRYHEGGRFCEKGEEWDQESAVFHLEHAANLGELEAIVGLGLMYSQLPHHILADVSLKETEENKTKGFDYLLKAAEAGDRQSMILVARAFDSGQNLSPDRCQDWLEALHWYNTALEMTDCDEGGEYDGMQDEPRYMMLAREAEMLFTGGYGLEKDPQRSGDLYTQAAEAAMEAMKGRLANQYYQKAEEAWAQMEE

[10] = molecular target: panel of 255 wild-type kinases (Homo sapiens, UniProt P53779); settings: kinase JNK3; 1 µmol/L single concentration; read-out: %-inhibition at 1 µmol/L, JNK3

Row | Structure (SMILES) | inhibition at 1 µM [1] [%] | inhibition at 1 µM [2] [%] | inhibition at 1 µM [3] [%] | inhibition at 1 µM [4] [%] | inhibition at 1 µM [5] [%] | inhibition at 1 µM [6] [%] | inhibition at 1 µM [7] [%] | inhibition at 1 µM [8] [%] | inhibition at 1 µM [9] [%] | inhibition at 1 µM [10] [%]
1 | CO[C@]1(C(=O)N[C@@H](C)c2ccc(-n3cc(F)cn3)nc2)CC[C@H](c2nc(C)cc(Nc3cc(C)[nH]n3)n2)CC1 [pralsetinib] | 5 | 55 | -3.21 | 81 | -0.435 | 3 | 10 | 53 | 1.23 | 6
2 | COc1cc2ncnc(Nc3ccc(F)c(Cl)c3)c2cc1NC(=O)/C=C/CN1CCCCC1 [dacomitinib] | 10 | 21 | 11 | 58 | 2 | 39 | 23 | 43 | 0 | 0.338
3 | CCn1c(=O)c(-c2cc(NC(=O)Nc3ccccc3)c(F)cc2Br)cc2cnc(NC)cc21 [ripretinib] | 69 | 0.637 | 0.077 | 50 | 59 | 13 | 6 | 4.22 | -2 | 10
4 | Cc1nc(NC(=O)N2CCC[C@H]2C(N)=O)sc1-c1ccnc(C(C)(C)C(F)(F)F)c1 [alpelisib] | -3.8 | -2.85 | 1.42 | 2 | -0.582 | 2.66 | -1.14 | -0.621 | 2 | -12
5 | C=CC(=O)N1CCC([C@@H]2CCNc3c(C(N)=O)c(-c4ccc(Oc5ccccc5)cc4)nn32)CC1 [zanubrutinib] | -2.7 | 0.209 | 4.22 | 37 | -1.32 | 5.63 | 4 | – | 0.514 | -8
6 | O=C(Nc1cnn2ccc(N3CCC[C@@H]3c3cc(F)ccc3F)nc12)N1CC[C@H](O)C1 [larotrectinib] | -6 | 16 | 1.58 | 2.55 | -0.506 | 2.53 | 3.46 | -3.71 | -2 | -7
7 | Cc1cc(Nc2ncnc3ccc(NC4=NC(C)(C)CO4)cc23)ccc1Oc1ccn2ncnc2c1 [tucatinib] | -1.5 | 49 | -5.44 | 6 | -5.68 | 3.65 | 4 | 21 | -2.79 | 1.13
8 | FC(F)(F)c1ccc(CNc2ccc(Cc3c[nH]c4ncc(Cl)cc34)cn2)cn1 [pexidartinib] | 12 | 10 | 0.77 | 5.64 | -7 | 24 | 11 | -0.863 | -2.25 | 0.454
9 | Cn1cnc2c(F)c(Nc3ccc(Br)cc3F)c(C(=O)NOCCO)cc21 [binimetinib] | -5.4 | 0.411 | 6 | 0.0227 | 3.28 | 3.18 | 4.21 | -3.75 | -6 | 7
10 | CN1CCN(c2ccc(C(=O)Nc3n[nH]c4ccc(Cc5cc(F)cc(F)c5)cc34)c(NC3CCOCC3)c2)CC1 [entrectinib] | 1.33 | 100 | 19 | 95 | 8 | 7 | 31 | 97 | 3.25 | -1.69
11 | COC(=O)N[C@@H](C)CNc1nccc(-c2cn(C(C)C)nc2-c2cc(Cl)cc(NS(C)(=O)=O)c2F)n1 [encorafenib] | -4.51 | 0.605 | 13 | 1.37 | 4 | 7.59 | 7 | -1.36 | 1 | 59
12 | C[C@H]1Oc2cc(cnc2N)-c2c(nn(C)c2C#N)CN(C)C(=O)c2ccc(F)cc21 [lorlatinib] | -0.456 | – | 0.817 | 22 | 13 | 1 | 41 | 1.48 | -1.73 | -8.55
13 | CCN1CCN(c2ccc(Nc3cc(N(C)C(=O)Nc4c(Cl)c(OC)cc(OC)c4Cl)ncn3)cc2)CC1 [infigratinib] | -3 | 60 | 2 | 46 | -1 | 15 | -0.482 | – | 2.54 | 4
14 | COc1ccc(CN2C3CC2CN(c2ccc(-c4cc(OCC(C)(C)O)cn5ncc(C#N)c45)cn2)C3)cn1 [selpercatinib] | -0.264 | -3 | 4.42 | 51 | -0.598 | 7 | 80 | 17 | -1.54 | -8.47
15 | Cn1cnc2c(F)c(Nc3ccc(Br)cc3Cl)c(C(=O)NOCCO)cc21 [selumetinib] | 0.627 | 53 | -3.21 | -0.332 | -3 | 1.58 | 4 | 52 | 2.4 | 2.14
